Measurements: US8114901B2, “Crystalline 2,5-dione-3-(1-methyl-1H-indol-3-yl)-4-[1-(pyridin-2-ylmethyl)piperidin-4-yl]-1H-indol-3-yl]-1H-pyrrole mono-hydrochloride” (Eli Lilly and Company, priority 2002, dated 2012)
“And” between values parts separate entries of the source, which are not always exact repeats. Equal values may be shown once. Read-outs that look alike come from different tables or passages of the source.

What was measured:
[1] = test system: VEGF-induced neo-angiogenesis; experiment: VEGF-induced neo-angiogenesis in the rat corneal micropocket; format: in vivo; conditions: administered orally for 10 days
Description: (§1) The salt of the present invention is an inhibitor of vascular endothelial growth factor (VEGF)-induced angiogenesis. […] These assay systems are more fully described in WO 02/02116. The salt of the present invention is, thus, effective in treating cancer and inhibiting tumor growth.

[2] = Plasma pharmacokinetics after single oral gavage, cross-over design; format: in vivo; conditions: fed female beagle dogs; for AUC0-24 / AUC0-inf / Cmax: single oral 5 mg/kg by gavage, individual animals 1-6, 5 mg/kg
Protocol: The 6 dogs were randomized into two treatment groups to receive single doses of FB Form I followed by a single dose of F-I two weeks later, or vice versa. On Days 1 and 14, 3 dogs received FB Form 1 and 3 dogs received F-I, and blood samples were collected at 0.5, 1, 2, 3, 4, 8, 12 and 24 hours post dosing. Concentrations of FB Form I were determined by liquid chromatography tandem mass spectrometry.

[3] = Hygroscopicity / moisture sorption (weight gain vs RH); format: physicochemical
Description: The different water contents prompted an investigation into the moisture sorption characteristics of those lots of crystalline FB-HCl that were not anhydrous. […] Crystalline FB-HCl material capable of water sorption is hereafter referred to as “hygroscopic F-I”.

[4] = test system: VEGF-stimulated proliferation of HUVEC cells; experiment: VEGF-stimulated proliferation of HUVEC cells in culture; format: cell-based; conditions: 72 hours of exposure
Description: as §1

[5] = Equilibrium solubility in aqueous media at ambient temperature, HPLC after 24 hours; format: physicochemical; conditions: for Amt Dissolved: 24 hours equilibration
Protocol: Extensive equilibrium solubility determinations were undertaken for both hygroscopic and anhydrous F-I in a variety of aqueous media at ambient temperature. Additionally, the equilibrium solubility of FB Form I was measured at ambient temperature.

[6] = Intrinsic dissolution of 100 mg compact; format: physicochemical; conditions: for % of 100 mg Compact Dissolved in 10 Minutes: Dissolution Medium 0.1 N HCl
Protocol: To confirm that variability in the hygroscopicity of F-I lots should not adversely impact bioavailability, intrinsic dissolution rates were also measured for the hygroscopic and anhydrous F-I. For comparison purposes, the intrinsic dissolution rate of FB Form I was also measured.

[7] = 0.01 N HCl, ambient temperature
[8] = SIF, fed pH 5.0, ambient temperature
[9] = pH 2.2 buffer, ambient temperature

Compound | hygroscopicity [3] | Filtrate pH ([5]; 0.01 N HCl) | Amt Dissolved [5, 7] | Filtrate pH ([5]; SIF, fed pH 5.0) | Amt Dissolved [5, 8] | Filtrate pH ([5]; pH 2.2 buffer) | Amt Dissolved [5, 9] | dissolution of a 100 mg compact within 10 minutes [6] | % of 100 mg Compact Dissolved in 10 Minutes [6] | other results
Cl.Cn1cc(C2=C(c3cn(C4CCN(Cc5ccccn5)CC4)c4ccccc34)C(=O)NC2=O)c2ccccc21 [F-I] | not significantly hygroscopic | – | – | – | – | – | – | – | – | inhibition of VEGF-induced neo-angiogenesis in the rat corneal micropocket [1]: highly effective inhibitor; plasma exposure (AUC 0 to 24 hr and 0 to infinity) compared with FB Form I ([2]; single oral 5 mg/kg): significantly higher; AUC0-24 ([2]; mono-hydrochloride): 3.5923 µM·h and 1.735 µM·h and 2.97 µM·h and 4.0644 µM·h and 6.1501 µM·h and 2.9445 µM·h; AUC0-inf ([2]; mono-hydrochloride): 3.8286 µM·h and 1.7984 µM·h and 3.0161 µM·h and 4.2008 µM·h and 6.6308 µM·h and 2.9983 µM·h; Cmax ([2]; mono-hydrochloride): 481 nM and 327 nM and 679 nM and 501 nM and 774 nM and 450 nM; weight gain ([3]; at 95% RH): < 2%; hygroscopicity ([3]; between 0-70% RH): relatively non-hygroscopic; inhibition of VEGF-stimulated proliferation of HUVEC cells [4]: potent inhibitor
Cn1cc(C2=C(c3cn(C4CCN(Cc5ccccn5)CC4)c4ccccc34)C(=O)NC2=O)c2ccccc21 [FB Form I] | – | 2.20 | 0.279 mg/mL and 0.355 mg/mL | 4.94 | 0.073 mg/mL and 0.074 mg/mL | 2.21 | 0.346 mg/mL and 0.336 mg/mL | > 10% | >30% | AUC0-24 [2]: 2.4431 µM·h and 0.3893 µM·h and 2.0924 µM·h and 3.4775 µM·h and 5.1195 µM·h and 2.2702 µM·h; AUC0-inf [2]: 2.5786 µM·h and 0.4006 µM·h and 2.1139 µM·h and 3.6031 µM·h and 5.3331 µM·h and 2.3063 µM·h; Cmax [2]: 336 nM and 99.8 nM and 532 nM and 600 nM and 552 nM and 718 nM
Cl.Cn1cc(C2=C(C3CCN(Cc4ccccn4)CC3)C(=O)NC2=O)c2ccccc21 [Hygroscopic F-I] | – | 2.25 | 0.046 mg/mL and 0.053 mg/mL | 4.93 | 0.014 mg/mL and 0.015 mg/mL | 2.26 | 0.324 mg/mL and 0.352 mg/mL | no appreciable dissolution | <<0.5% | maximum moisture sorption ([3]; at 40% RH): 1.6%
tartrate | only slightly hygroscopic | – | – | – | – | – | – | – | – | weight gain ([3]; at RH's up to 70%): ~1%
